These results are taken from patent US8987260B2, “Pharmaceutical compounds” (F. Hoffmann-La Roche AG, priority 2006, dated 2015).

In general, solubility refers to the concentration that dissolves in the medium under given conditions. As usually defined, the fraction unbound is the share of the substance not bound to proteins or other matrix. Usually EC50 stands for the concentration that produces a half-maximal response. Low readings indicate an effect from little substance, high ones a need for much substance. As a reminder, the Papp is a coefficient for how fast a substance crosses the barrier. A low value points to poor permeation. The IC50 is the midpoint of a concentration-inhibition curve.

The nature of data set [1]: Aqueous solubility at physiological pH. It counts as physicochemical. The following applies: aqueous medium at physiological pH, pH 7.4, aqueous buffer.
Data set [2] can be described thus: Plasma protein binding (equilibrium dialysis). It counts as in vitro ADME. The following applies: 10% plasma (v/v in buffer), 37° C., read-out: fraction unbound (Fu). The protocol: Solutions of test compound (5 um, 0.5% final DMSO concentration) were prepared in buffer and 10% plasma (v/v in buffer). A 96 well HT dialysis plate was assembled so that each well was divided in two by a semi-permeable cellulose membrane. The buffer solution was added to one side of the membrane and the plasma solution to the other side; incubations were then conducted at 37° C. over 2 h in triplicate. The cells were subsequently emptied, and the solutions for each batch of compounds were combined into two groups (plasma-free and plasma-containing) then analysed by LC-MSMS using two sets of calibration standards for plasma-free (6 points) and plasma-containing solutions (7 points).

A further data set concerns range of cell lines. Put plainly: Cellular proliferation inhibition (Alamar Blue). It counts as cell-based. The following applies: 96 h; 4 days incubation, range of cell lines utilized. The protocol: Cells were seeded at optimal density in a 96 well plate and incubated for 4 days in the presence of test compound. Alamar Blue™ was subsequently added to the assay medium, and cells were incubated for 6 h before reading at 544 nm excitation, 590 nm emission. EC50 values were calculated using a sigmoidal dose response curve fit.
(In general: The colour change of resazurin is a common sign of viable cells or microbes.)

The nature of another data set: in vitro. As to conditions: human, Caco-2.
The subject of the next data set is T1, PI3K.
T1 construct: other: purified recombinant enzyme, ATP 1 uM, 1 h room temperature
It counts as biochemical. As to conditions: purified recombinant enzyme, ATP 1 uM, 1 h room temperature; read-out: IC50 against PI3K. The protocol:
The compound was serially diluted in 100% DMSO. The kinase reaction was incubated for 1 h at room temperature, and the reaction was terminated by the addition of PBS. IC50 values were subsequently determined using sigmoidal dose-response curve fit (variable slope).

A further data set deals with CYP450 3A4 (Homo sapiens, UniProt P08684). The experiment in a line: Cytochrome P450 inhibition. It counts as in vitro ADME. The following applies: top concentration 100 uM. From the text: (§1) Standard inhibitors (furafylline, sulfaphenazole, tranylcypromine, quinidine, ketoconazole) were used as controls. Plates were read using a BMG LabTechnologies PolarStar in fluorescence mode.
Chain of CYP450 3A4 (P08684 whole entry): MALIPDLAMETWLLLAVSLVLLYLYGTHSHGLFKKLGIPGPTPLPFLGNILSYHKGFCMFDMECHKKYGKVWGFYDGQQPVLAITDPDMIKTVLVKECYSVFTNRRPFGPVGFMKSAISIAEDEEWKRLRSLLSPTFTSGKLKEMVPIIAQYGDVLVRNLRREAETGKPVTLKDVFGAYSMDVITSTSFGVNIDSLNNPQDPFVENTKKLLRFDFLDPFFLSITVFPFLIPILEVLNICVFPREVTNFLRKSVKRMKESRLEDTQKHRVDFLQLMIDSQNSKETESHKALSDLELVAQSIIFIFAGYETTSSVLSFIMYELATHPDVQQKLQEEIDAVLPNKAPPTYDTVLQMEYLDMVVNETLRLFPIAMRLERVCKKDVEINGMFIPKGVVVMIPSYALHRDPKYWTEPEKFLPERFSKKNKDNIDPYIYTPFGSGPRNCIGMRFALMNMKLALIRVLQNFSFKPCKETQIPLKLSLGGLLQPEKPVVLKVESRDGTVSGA

The target of a further data set is CYP450 2D6 (Homo sapiens, UniProt P10635). Put plainly: Cytochrome P450 inhibition. It counts as in vitro ADME. The following applies: top concentration 100 uM.
Chain of CYP450 2D6 (P10635 whole entry): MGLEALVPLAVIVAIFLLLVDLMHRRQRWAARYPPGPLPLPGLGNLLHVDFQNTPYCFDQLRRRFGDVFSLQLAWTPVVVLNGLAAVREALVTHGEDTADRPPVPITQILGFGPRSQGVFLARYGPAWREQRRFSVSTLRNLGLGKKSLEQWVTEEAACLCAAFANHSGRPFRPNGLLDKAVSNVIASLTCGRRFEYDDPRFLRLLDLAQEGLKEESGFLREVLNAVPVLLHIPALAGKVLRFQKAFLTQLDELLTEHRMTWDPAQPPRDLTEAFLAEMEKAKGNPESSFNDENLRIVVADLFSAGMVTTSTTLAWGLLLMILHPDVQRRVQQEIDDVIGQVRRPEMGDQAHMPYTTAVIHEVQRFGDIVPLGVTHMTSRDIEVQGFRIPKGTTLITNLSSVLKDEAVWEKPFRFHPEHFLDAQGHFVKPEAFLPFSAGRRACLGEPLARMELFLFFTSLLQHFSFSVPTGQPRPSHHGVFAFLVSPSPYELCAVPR
Text: as §1

The target of the next data set is CYP450 2C9 (Homo sapiens, UniProt P11712). Put plainly: Cytochrome P450 inhibition. It counts as in vitro ADME. As to conditions: top concentration 100 uM.
Chain of CYP450 2C9 (P11712 whole entry): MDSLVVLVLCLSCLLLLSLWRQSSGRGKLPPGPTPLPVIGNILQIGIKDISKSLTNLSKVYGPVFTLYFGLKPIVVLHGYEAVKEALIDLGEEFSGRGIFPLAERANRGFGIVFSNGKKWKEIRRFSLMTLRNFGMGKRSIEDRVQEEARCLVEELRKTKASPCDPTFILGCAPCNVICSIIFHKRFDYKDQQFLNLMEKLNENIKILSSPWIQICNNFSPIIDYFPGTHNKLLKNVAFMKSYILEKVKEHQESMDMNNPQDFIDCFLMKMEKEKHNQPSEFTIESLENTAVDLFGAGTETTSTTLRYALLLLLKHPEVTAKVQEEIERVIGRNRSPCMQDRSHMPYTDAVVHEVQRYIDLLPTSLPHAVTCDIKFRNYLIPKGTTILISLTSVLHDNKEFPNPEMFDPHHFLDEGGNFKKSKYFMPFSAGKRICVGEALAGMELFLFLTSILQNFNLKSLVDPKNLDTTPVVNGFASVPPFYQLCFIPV
Text: as §1

The next data set concerns the target T2, CYP450 1A2 (Homo sapiens, UniProt P05177).
T2 sequence (P05177 1-516): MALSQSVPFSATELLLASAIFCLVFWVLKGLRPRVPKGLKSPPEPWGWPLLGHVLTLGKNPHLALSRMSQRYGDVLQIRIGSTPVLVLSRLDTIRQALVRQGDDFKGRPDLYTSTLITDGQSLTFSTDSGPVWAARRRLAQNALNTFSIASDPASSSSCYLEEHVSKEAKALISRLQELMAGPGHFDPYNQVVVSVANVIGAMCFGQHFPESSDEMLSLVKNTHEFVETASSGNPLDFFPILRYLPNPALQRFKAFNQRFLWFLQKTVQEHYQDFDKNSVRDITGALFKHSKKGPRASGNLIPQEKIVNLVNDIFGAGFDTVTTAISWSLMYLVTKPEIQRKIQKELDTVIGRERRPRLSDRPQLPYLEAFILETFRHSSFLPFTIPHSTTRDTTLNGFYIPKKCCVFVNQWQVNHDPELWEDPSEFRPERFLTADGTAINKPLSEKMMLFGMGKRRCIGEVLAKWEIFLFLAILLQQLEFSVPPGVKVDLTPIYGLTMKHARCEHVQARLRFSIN
Put plainly: Cytochrome P450 inhibition. It counts as in vitro ADME. The following applies: top concentration 100 uM.
Text: as §1

Another data set deals with CYP450 2C19 (Homo sapiens, UniProt P33261). Put plainly: Cytochrome P450 inhibition. It counts as in vitro ADME. As to conditions: top concentration 100 uM.
Chain of CYP450 2C19 (P33261 whole entry): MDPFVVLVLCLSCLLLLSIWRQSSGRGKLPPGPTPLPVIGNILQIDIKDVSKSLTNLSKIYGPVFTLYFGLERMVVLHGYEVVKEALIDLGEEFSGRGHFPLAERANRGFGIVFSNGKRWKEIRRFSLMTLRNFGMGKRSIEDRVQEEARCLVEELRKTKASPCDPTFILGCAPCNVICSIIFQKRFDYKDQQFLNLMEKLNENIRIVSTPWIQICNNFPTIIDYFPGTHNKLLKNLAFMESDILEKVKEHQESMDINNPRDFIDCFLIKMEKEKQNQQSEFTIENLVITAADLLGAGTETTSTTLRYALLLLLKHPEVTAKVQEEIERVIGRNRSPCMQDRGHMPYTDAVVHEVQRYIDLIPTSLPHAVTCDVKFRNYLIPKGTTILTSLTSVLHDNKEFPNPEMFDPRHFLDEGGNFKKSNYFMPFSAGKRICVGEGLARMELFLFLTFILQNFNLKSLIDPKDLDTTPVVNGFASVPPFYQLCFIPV
Text: as §1

Where only a bound is given, the exact number is not on record here.

As to `CS(=O)(=O)N1CCN(Cc2cc3nc(-c4cccc5[nH]ncc45)nc(N4CCOCC4)c3s2)CC1` [compound of the invention, 2-(1H-Indazol-4-yl)-6-(4-methanesulfonyl-piperazin-1-ylmethyl)-4-morpholin-4-yl-thieno[3,2-d]pyrimidine], the solubility in [1] was […]. In data set [2], the free fraction (fraction unbound) at 2 h, 5 um is […]. Further, in the data set with range of cell lines, the EC50 was at most 50 µM. In the data set “in vitro”, the apparent permeability (Papp) was […]. For the same compound, the concentration for half-maximal inhibition (IC50) in the data set on PI3K was […]; against CYP450 3A4, at least 5 µM; against CYP450 2D6, at least 5 µM; against CYP450 2C9, at least 5 µM; against CYP450 1A2 it was at least 5 µM; against CYP450 2C19, at least 5 µM.
